Source: BindingDB's records for doi:10.1021/jm034141y (Merck Research Laboratories, 2003)

Assay: In vitro inhibition of purified Carboxypeptidase B (CPB) by ECL assay

Structure (SMILES) | IC50
O=C(O)C(Cc1ccccc1)c1cnc[nH]1 (configuration not stated) [2-(1H-Imidazol-4-yl)-3-phenyl-propionic acid] | > 100000 nM
Nc1ccc(CC(C(=O)O)c2cn(Cc3ccccc3)cn2)cn1 (configuration not stated) [3-(6-Amino-pyridin-3-yl)-2-(1-benzyl-1H-imidazol-4-yl)-propionic acid] | 21 nM
